# Assays:
# [1] = tested on: human large intestine cancer cell line HCT116; experiment: Antitumor effect on human large intestine cancer cell line HCT116 cancer-bearing mice; format: in vivo, mouse; details: 10 mg/kg, 2 doses per day, orally for 14 days; HCT116 cancer-bearing BALB/c nude mice; tumor growth vs control group
# Method: The compound of the present invention was evaluated for its antitumor effect on human large intestine cancer cell line HCT116 cancer-bearing mice by the following method.
# The human large intestine cancer cell line HCT116 (purchased from ATCC (American Type Culture Collection)) was transplanted to each 6-week-old BALB/c female nude mouse (BALB/cA Jcl nu/nu: CLEA Japan Inc.) by the subcutaneous injection of 1.0×10^6 cells. After the transplantation, successfully engrafted tumor was observed, and the tumor size was measured 10 to 14 days after the transplantation. The tumor volume was calculated according to the following expression:
# Tumor volume=Major axis×Minor axis×Minor axis×(½)
# Individuals in which the volume of the engrafted tumor reached approximately 150 mm^3 were selected and used in the experiment as groups each involving 5 to 8 individuals. Each test compound was suspended in a 0.5% methylcellulose solution and orally administered to each individual for 14 days using the dose and the number of doses shown in the table below. Finally, in order to measure drug effects, the tumor volume was calculated from the tumor sizes at the day before the start of the administration and at the final day of the administration, and tumor growth in the test compound administration group compared with a control administration group given only a 0.5% methylcellulose solution was calculated as T/C according to the following expression:
# T/C (%)=(Tumor volume after the completion of the administration of the test compound administration group−Tumor volume at the day before the start of the administration of the test compound administration group)/(Tumor volume after the completion of the administration of the control administration group−Tumor volume at the day before the start of the administration of the control administration group)×100
# [2] = target: T1, human SCD1 (Homo sapiens, UniProt O00767); experiment: Measurement of human SCD1 binding activity (inhibition of binding of radiolabeled compound Z); details: human SCD1-expressing membrane fraction, compound Z radioligand; for inhibition at 1 µM: 1 μM compound, read-out: Rate of inhibition of SCD1 binding (%) at compound concentration of 1 μM
# T1 construct: made in house; host or cells: High Five insect cells (baculovirus, pFastBac1/hSCD1); membrane fraction
# T1 sequence (O00767 1-359): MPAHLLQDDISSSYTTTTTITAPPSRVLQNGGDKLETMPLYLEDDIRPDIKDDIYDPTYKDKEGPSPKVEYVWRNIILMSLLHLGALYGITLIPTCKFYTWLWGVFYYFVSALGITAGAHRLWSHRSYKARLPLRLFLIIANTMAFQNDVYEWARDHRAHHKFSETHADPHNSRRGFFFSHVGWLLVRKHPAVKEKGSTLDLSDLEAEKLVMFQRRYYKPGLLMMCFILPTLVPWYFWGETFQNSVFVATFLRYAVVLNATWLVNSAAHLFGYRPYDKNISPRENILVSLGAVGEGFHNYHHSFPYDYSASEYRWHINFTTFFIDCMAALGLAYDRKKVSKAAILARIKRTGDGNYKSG
# Method: Measurement of Human SCD1 Binding Activity Using (5-(6-(1′H-spiro[1-benzofuran-3,3′-pyrrolidin]-1′-yl)pyridazin-3-yl)-1,2,4-oxadiazol-3-yl) [^3H2]methanol
# The SCD1 binding activity of the compound of the present invention was measured as the activity of inhibiting the binding of (5-(6-(1′H-spiro[1-benzofuran-3,3′-pyrrolidin]-1′-yl)pyridazin-3-yl)-1,2,4-oxadiazol-3-yl)[^3H2]methanol (radiolabeled form of the compound disclosed as a SCD inhibitor in Example 157 of International Publication No. WO2008/096746; in the present specification, also referred to as compound Z) to SCD1.
# Specifically, first, Human liver cDNA library (Takara Bio Inc.) was cloned as a template by PCR using KOD-Plus-(Toyobo Co., Ltd.) DNA polymerase. The primers used were 5′-[…]-3′ and 5′-[…]-3′. The amplification fragment was temporarily transferred to a pCR Blunt II-TOPO vector using Zero Blunt PCR Cloning Kit (Life Technologies, Inc.) to obtain pCR Blunt II-TOPO/hSCD1. A fragment obtained by the cleavage of this pCR Blunt II-TOPO/hSCD1 with BamHI and NotI was transferred to pFastBac1 (Life Technologies, Inc.) to construct a recombinant plasmid pFastBac1/hSCD1 for hSCD1 insect cell expression systems.
# Baculovirus was prepared using the pFastBac1/hSCD1 plasmid according to the protocol of Bac-to-Bac Baculovirus Expression System (Life Technologies, Inc.).
# The insect cells for use in expression were High Five cells (Life Technologies, Inc.) subcultured in a PSFM-J1 medium (Wako Pure Chemical Industries, Ltd.) containing 5% FBS, 10 U/L heparin (Sigma-Aldrich Corp.) and 50 μg/mL gentamicin.
# The High Five cells were inoculated at 0.8×10^6 cells/mL and cultured until the following day. When the cell density reached 2.0×10^6 cells/mL, Ammonium Iron(III) Sulfate 12-Water (Wako Pure Chemical Industries, Ltd.) was added thereto at a final concentration of 10 μM. The cells were further infected with the baculovirus and cultured for 3 days.
# After the completion of the culture, the culture solution was centrifuged (4° C., 4,000 rpm, […]) and frozen at −80° C. to obtain hSCD1-expressing insect cells. Next, the frozen hSCD1-expressing insect cells were suspended in buffer A (50 mM Tris-HCl (pH 7.5) containing 250 mM sucrose and cOmplete Protease Inhibitor Cocktail Tablets (F. Hoffmann-La Roche, Ltd.)), and the cells were disrupted (4° C., 20,000 rpm, 20 sec×2) using a POLYTORON homogenizer (Central Scientific Commerce, Inc.).
# This cell lysate was centrifuged (4° C., 850×g, […]), and the supernatant was further ultracentrifuged (4° C., 186,000×g, 60 min). The supernatant was discarded, and buffer A was added to the precipitate. The resultant was suspended using POLYTRON (4° C., 10,000 rpm, 10 sec×2) and passed through a 40-μm cell strainer to prepare a human SCD1-expressing membrane fraction (hereinafter, also simply referred to as human SCD1). The protein concentration was measured using BCA Protein Assay Kit (Thermo Fisher Scientific, Inc.) with BSA used as standards.
# The obtained primary dilution was diluted 250-fold by the addition of an assay buffer (10 mM Tris-HCl, pH 7.5, 100 mM KCl, 10 mM NaF, 3 mM MgCl2, 0.005% Tween 20, 1 mM GSH) to obtain a secondary dilution. The human SCD1 diluted using an assay buffer was dispensed at 100 μL/well (containing 0.2 μg of the protein) to a polypropylene 96-well plate, and then, the secondary dilution of the compound was added thereto at 50 μL/well. Further, a solution of 12 nM compound Z diluted with an assay buffer was added thereto at 50 μL/well, and the plate was left standing at room temperature for 2 hours. Then, the contents in each well were transferred to each well of UniFilter-96 GF/C PEI coated plate (PerkinElmer, Inc.) wetted with a washing buffer, followed by washing five times with a washing buffer (10 mM Tris-HCl, pH 7.5). After drying of the filter plate, Microscint-O (PerkinElmer, Inc.) was added thereto at 25 μL/well, and the obtained radioactivity was measured using TopCount (PerkinElmer, Inc.). […]
SMILES,inhibition at 1 µM [2],"inhibition at 0.1 µM ([2]; 0.1 μM compound, read-out: Rate of inhibition of SCD1 binding at compound concentration of 0.1 μM)",T/C (%) [1]
"OCc1noc(-c2ccc(N3CCC(c4ccc(C(F)(F)F)cc4)(C(F)(F)F)CC3)nn2)n1 [Example 82, (5-(6-(4-(Trifluoromethyl)-4-(4-(trifluoromethyl)phenyl)piperidin-1-yl)pyridazin-3-yl)-1,2,4-oxadiazol-3-yl)methanol]",99%,–,–
"OCc1nnc(-c2ccc(N3CCC(c4ccc(C(F)(F)F)cc4)(C(F)(F)F)CC3)nn2)o1 [Example 84, (5-(6-(4-(Trifluoromethyl)-4-(4-(trifluoromethyl)phenyl)piperidin-1-yl)pyridazin-3-yl)-1,3,4-oxadiazol-2-yl)methanol]",99%,–,58.4%
"COC1(c2ccc(S(F)(F)(F)(F)F)cc2)CCN(c2ccc(-c3nnc(CO)o3)nn2)CC1 [Example 93, (5-(6-(4-Methoxy-4-(4-(pentafluorosulfanyl)phenyl)piperidin-1-yl)pyridazin-3-yl)-1,3,4-oxadiazol-2-yl)methanol]",98%,–,58.1%
"OCc1nsc(-c2ccc(N3CCC(c4ccc(C(F)(F)F)cc4)(C(F)(F)F)CC3)nn2)n1 [Example 112, (5-(6-(4-(Trifluoromethyl)-4-(4-(trifluoromethyl)phenyl)piperidin-1-yl)pyridazin-3-yl)-1,2,4-thiadiazol-3-yl)methanol]",99%,–,53.7%
"OCc1nnc(-c2ccc(N3CCC(c4ccc(C(F)(F)F)cc4)(C(F)(F)F)CC3)nn2)s1 [Example 113, (5-(6-(4-(Trifluoromethyl)-4-(4-(trifluoromethyl)phenyl)piperidin-1-yl)pyridazin-3-yl)-1,3,4-thiadiazol-2-yl)methanol]",100%,–,67.8%

# Continued, in another order:
inhibition at 1 µM [2],"inhibition at 0.1 µM ([2]; 0.1 μM compound, read-out: Rate of inhibition of SCD1 binding at compound concentration of 0.1 μM)",SMILES,T/C (%) [1]
89%,–,"N#CC1(c2ccc(S(F)(F)(F)(F)F)cc2)CCN(c2ccc(-c3nnc(CO)o3)nn2)CC1 [Example 58, 1-(6-(5-(Hydroxymethyl)-1,3,4-oxadiazol-2-yl)pyridazin-3-yl)-4-(4-(pentafluorosulfanyl)phenyl)piperidine-4-carbonitrile]",86.2%
99%,–,"N#CC1(c2ccc(S(F)(F)(F)(F)F)cc2)CCN(c2ccc(-c3nc(CO)ns3)nn2)CC1 [Example 108, 1-(6-(3-(Hydroxymethyl)-1,2,4-thiadiazol-5-yl)pyridazin-3-yl)-4-(4-(pentafluorosulfanyl)phenyl)piperidine-4-carbonitrile]",–
87%,–,"N#CC1(c2ccc(S(F)(F)(F)(F)F)cc2)CCN(c2ccc(-c3nnc(CO)s3)nn2)CC1 [Example 109, 1-(6-(5-(Hydroxymethyl)-1,3,4-thiadiazol-2-yl)pyridazin-3-yl)-4-(4-(pentafluorosulfanyl)phenyl)piperidine-4-carbonitrile]",–
100%,–,"COC1(c2ccc(S(F)(F)(F)(F)F)cc2)CCN(c2ccc(-c3nc(CO)ns3)nn2)CC1 [Example 110, (5-(6-(4-Methoxy-4-(4-(pentafluorosulfanyl)phenyl)piperidin-1-yl)pyridazin-3-yl)-1,2,4-thiadiazol-3-yl)methanol]",64.8%
–,93%,"COC1(c2ccc(S(F)(F)(F)(F)F)cc2)CCN(c2ccc(-c3nnc(CO)s3)nn2)CC1 [Example 111, (5-(6-(4-Methoxy-4-(4-(pentafluorosulfanyl)phenyl)piperidin-1-yl)pyridazin-3-yl)-1,3,4-thiadiazol-2-yl)methanol]",–
